Laboratory results reported in patent US20240279207A1, “SUBSTITUTED ACYL SULFONAMIDES FOR TREATING CANCER” (The Broad Institute, Inc., priority 2020, published 2024).
Like-named read-outs stand apart in the source and are kept apart here.

What was measured:
[1] = target: T1, Recombinant human His-tagged Kat6a protein (amino acids 194-810) (Homo sapiens, UniProt Q92794); test: Kat6a activity assay (TR-FRET, acetylation of Histone-H4-derived peptide); type: biochemical; conditions: 60 mins at 22° C., 220 nM H4 peptide, 600 nM Acetyl Coenzyme A, read-out: KAT6A - DPF/HAT domain IC50 [mol/l] (arithmetic mean)
T1 construct: Kat6a protein (amino acids 194-810); His
T1 sequence (Q92794 194-810): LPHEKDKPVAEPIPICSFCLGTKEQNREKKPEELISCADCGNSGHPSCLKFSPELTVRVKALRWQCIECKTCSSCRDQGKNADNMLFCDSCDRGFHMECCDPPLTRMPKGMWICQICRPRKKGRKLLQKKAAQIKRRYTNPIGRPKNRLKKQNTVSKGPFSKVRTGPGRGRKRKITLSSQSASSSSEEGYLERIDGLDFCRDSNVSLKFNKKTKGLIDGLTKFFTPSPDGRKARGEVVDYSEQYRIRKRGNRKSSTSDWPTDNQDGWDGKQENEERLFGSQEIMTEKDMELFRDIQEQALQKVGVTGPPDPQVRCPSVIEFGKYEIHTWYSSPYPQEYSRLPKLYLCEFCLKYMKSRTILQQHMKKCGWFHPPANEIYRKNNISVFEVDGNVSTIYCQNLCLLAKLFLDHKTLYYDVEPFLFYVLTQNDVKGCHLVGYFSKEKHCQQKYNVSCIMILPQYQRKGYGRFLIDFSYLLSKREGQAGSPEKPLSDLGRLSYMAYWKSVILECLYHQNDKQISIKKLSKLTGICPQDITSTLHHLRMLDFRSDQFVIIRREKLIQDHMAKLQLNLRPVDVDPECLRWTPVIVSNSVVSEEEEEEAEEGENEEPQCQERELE
Method: Kat6a inhibitory activities of the compounds described in the present invention were quantified using a Fluorescence Resonance Energy Transfer (TR-FRET) assay which measures acetylation of a synthetic, biotinylated Histone-H4-derived peptide by the enzyme.
In this case 50 nl DMSO were used instead of compounds. […] IC50 values were determined by regression analysis based on a 4 parameter equation (minimum, maximum, ICM, Hill; Y=Max+(Min−Max)/(1+(X/ICso) Hill) using the Screener Software (Genedata).

[2] = tested on: ESR1 transcription in MVLN cells; test: MVLN reporter assay: repression of ESR1 transcription (luciferase signal); type: cell-based; conditions: Homo sapiens, luciferase signal after 24 h, read-out: MVLN reporter assay, IC50 [M] (arithmetic mean)
Text: KAT6A controls transcription of the ESR1 gene in breast cancer cells. Compound treatment that interferes with this mechanism was quantified using MVLN cells. These cells constitutively express the ER and are stably transfected with the luciferase (LUC) reporter gene and the corresponding hormone responsive element derived from the 5′-flanking region of the Xenopus Vitellogenin A2 gene (Pons et al., 1990, Demirpense et al., 1993, Joyeux et al., 1993). The repressive effect on ERα transcription activity of a test chemical is directly related to the luciferase measured in the lysate of treated MVLN cells. […] Each sample was prepared as duplicate and rim wells were excluded. For luciferase signal determination 100 μl of a 1:1 mixture of Steadylite plus (Perkin Elmer; 6016759) and assay medium was added after 24 h for 15 minutes and measured in Victor X3 (Perkin Elmer). To exclude any effects caused by cell loss during the treatment, cell density was determined using Alamar Blue (Invitrogen; DAL1100). Prior to the luciferase measurement 10 μl Alamar Blue were added to each well and the plates were incubated for 2 h in the incubator. Then fluorescence was measured with Victor X3 (Perkin Elmer) at 530 nm/590 nm.

Compound | IC50 [1] [nM] | IC50 ([2]; MVLN, 24 h) [M] | IC50 [2] [M]
COc1ccc(C2=CCN(C)CC2)cc1S(=O)(=O)NC(=O)c1cc2c(F)cc(N3CCC3)cc2o1 [Example 203, 6-(Azetidin-1-yl)-4-fluoro-N-[2-methoxy-5-(1-methyl-1,2,3,6-tetrahydropyridin-4-yl)benzene-1-sulfonyl]-1-benzofuran-2-carboxamide] | 156 | 3.78e-06 | –
CCc1csc(C)c1S(=O)(=O)NC(=O)c1cc2c(F)cc(N3CCC3)cc2o1 [Example 36, 6-(Azetidin-1-yl)-N-(4-ethyl-2-methylthiophene-3-sulfonyl)-4-fluoro-1-benzofuran-2-carboxamide] | 367 | 6.04e-07 | –
COc1ccc(-c2cccnc2)cc1S(=O)(=O)NC(=O)c1cc2c(F)cc(N3CCC3)cc2o1 [Example 200, 6-(Azetidin-1-yl)-4-fluoro-N-[2-methoxy-5-(pyridin-3-yl)benzene-1-sulfonyl]-1-benzofuran-2-carboxamide] | 34.1 | 5.5e-07 | –
CCN(CC)C(=O)Oc1ccccc1S(=O)(=O)NC(=O)c1cc2c(F)cc(N3CCC3)cc2o1 [Example 76, 2-{[6-(Azetidin-1-yl)-4-fluoro-1-benzofuran-2-carbonyl]sulfamoyl}phenyl diethylcarbamate] | 111 | – | 2.82e-06
COC(=O)/C=C/c1ccccc1S(=O)(=O)NC(=O)c1cc2c(F)cc(N3CCC3)cc2o1 [Example 74, Methyl (2E)-3-(2-{[6-(azetidin-1-yl)-4-fluoro-1-benzofuran-2-carbonyl]sulfamoyl}phenyl)prop-2-enoate] | 89.8 | 2.56e-06 | –
Cc1ccc(OC2CCCC2)c(S(=O)(=O)NC(=O)c2cc3c(F)cc(N4CCC4)cc3o2)c1 [Example 9, 6-(Azetidin-1-yl)-N-[2-(cyclopentyloxy)-5-methylbenzene-1-sulfonyl]-4-fluoro-1-benzofuran-2-carboxamide] | 21.2 | 1.34e-07 | –
Cn1ccc2cccc(S(=O)(=O)NC(=O)c3cc4c(F)cc(N5CCC5)cc4o3)c21 [Example 41, 6-(Azetidin-1-yl)-4-fluoro-N-(1-methyl-1H-indole-7-sulfonyl)-1-benzofuran-2-carboxamide] | 90.1 | 8.57e-07 | –
COc1cc(C)ccc1S(=O)(=O)NC(=O)c1cc2c(F)cc(N3CC(F)C3)cc2o1 [Example 158, 4-Fluoro-6-(3-fluoroazetidin-1-yl)-N-(2-methoxy-4-methylbenzene-1-sulfonyl)-1-benzofuran-2-carboxamide] | 25.7 | 1.05e-07 | –
CCc1ccc(C)c(S(=O)(=O)NC(=O)c2cc3c(F)cc(N4CCC4)cc3o2)c1 [Example 34, 6-(Azetidin-1-yl)-N-(5-ethyl-2-methylbenzene-1-sulfonyl)-4-fluoro-1-benzofuran-2-carboxamide] | 59.6 | 5.79e-07 | –
O=C(NS(=O)(=O)c1cccc2c1OC(F)(F)C(F)(F)O2)c1cc2c(F)cc(N3CC(F)C3)cc2o1 [Example 159, 4-Fluoro-6-(3-fluoroazetidin-1-yl)-N-(2,2,3,3-tetrafluoro-2,3-dihydro-1,4-benzodioxine-5-sulfonyl)-1-benzofuran-2-carboxamide] | 34.3 | 7.45e-07 | –
CCc1cccc(OCC2CC2)c1S(=O)(=O)NC(=O)c1cc2c(F)cc(N3CCC3)cc2o1 [Example 33, 6-(Azetidin-1-yl)-N-[2-(cyclopropylmethoxy)-6-ethylbenzene-1-sulfonyl]-4-fluoro-1-benzofuran-2-carboxamide] | 73.5 | 5.37e-07 | –

The next lines start with results.

IC50 [1] [nM] | IC50 ([2]; MVLN, 24 h) [M] | Compound | IC50 [2] [M]
89.5 | 6.47e-07 | O=C(NS(=O)(=O)c1cccc2nsnc12)c1cc2c(F)cc(N3CCC3)cc2o1 [Example 181, 6-(Azetidin-1-yl)-N-(2,1,3-benzothiadiazole-4-sulfonyl)-4-fluoro-1-benzofuran-2-carboxamide] | –
11.6 | 2.95e-07 | COc1ccc(-c2cccc(F)c2)cc1S(=O)(=O)NC(=O)c1cc2c(F)cc(N3CCC3)cc2o1 [Example 198, 6-(Azetidin-1-yl)-4-fluoro-N-(3′-fluoro-4-methoxy[1,1′-biphenyl]-3-sulfonyl)-1-benzofuran-2-carboxamide] | –
149 | 1.2e-06 | O=C(NS(=O)(=O)c1c(Cl)ccc2c1OC(F)(F)O2)c1cc2c(F)cc(N3CCC3)cc2o1 [Example 142, 6-(Azetidin-1-yl)-N-(5-chloro-2,2-difluoro-2H-1,3-benzodioxole-4-sulfonyl)-4-fluoro-1-benzofuran-2-carboxamide] | –
101 | 1.55e-06 | O=C(NS(=O)(=O)c1ccccc1CCC(F)(F)F)c1cc2c(F)cc(N3CCC3)cc2o1 [Example 52, 6-(Azetidin-1-yl)-4-fluoro-N-[2-(3,3,3-trifluoropropyl)benzene-1-sulfonyl]-1-benzofuran-2-carboxamide] | –
563 | 3.81e-06 | Cc1nc(-c2ccc(S(=O)(=O)NC(=O)c3cc4c(F)cc(N5CC(F)C5)cc4o3)cc2)cs1 [Example 115, 4-Fluoro-6-(3-fluoroazetidin-1-yl)-N-[4-(2-methyl-1,3-thiazol-4-yl)benzene-1-sulfonyl]-1-benzofuran-2-carboxamide] | –
379 | 3.08e-07 | Cc1nn(C(C)C)cc1S(=O)(=O)NC(=O)c1cc2c(F)cc(N3CCC3)cc2o1 [Example 91, 6-(Azetidin-1-yl)-4-fluoro-N-[3-methyl-1-(propan-2-yl)-1H-pyrazole-4-sulfonyl]-1-benzofuran-2-carboxamide] | –
42.7 | 1.63e-07 | O=C(NS(=O)(=O)c1cccc2c1OCCC2)c1cc2c(F)cc(N3CCC3)cc2o1 [Example 12, 6-(Azetidin-1-yl)-N-(3,4-dihydro-2H-1-benzopyran-8-sulfonyl)-4-fluoro-1-benzofuran-2-carboxamide] | –
34 | 1.35e-07 | O=C(NS(=O)(=O)c1cccc2c1OCCO2)c1cc2c(F)cc(N3CCC3)cc2o1 [Example 172, 6-(Azetidin-1-yl)-N-(2,3-dihydro-1,4-benzodioxine-5-sulfonyl)-4-fluoro-1-benzofuran-2-carboxamide] | –
91.5 | 2.98e-06 | CCCc1ccc2nc(Cl)c(S(=O)(=O)NC(=O)c3cc4c(F)cc(N5CCC5)cc4o3)n2n1 [Example 147, 6-(Azetidin-1-yl)-N-(2-chloro-6-propylimidazo[1,2-b]pyridazine-3-sulfonyl)-4-fluoro-1-benzofuran-2-carboxamide] | –
84.5 | 1.04e-06 | COc1ccc(N2CCN(C)CC2)cc1S(=O)(=O)NC(=O)c1cc2c(F)cc(N3CCC3)cc2o1 [Example 202, 6-(Azetidin-1-yl)-4-fluoro-N-[2-methoxy-5-(4-methylpiperazin-1-yl)benzene-1-sulfonyl]-1-benzofuran-2-carboxamide] | –
34.2 | 5.11e-07 | Cc1ccc(C(C)C)cc1S(=O)(=O)NC(=O)c1cc2c(F)cc(N3CCC3)cc2o1 [Example 32, 6-(Azetidin-1-yl)-4-fluoro-N-[2-methyl-5-(propan-2-yl)benzene-1-sulfonyl]-1-benzofuran-2-carboxamide] | –
294 | 5.21e-06 | O=C(NS(=O)(=O)c1cnn2c1OCCC2)c1cc2c(F)cc(N3CCC3)cc2o1 [Example 184, 6-(Azetidin-1-yl)-N-(6,7-dihydro-5H-pyrazolo[5,1-b][1,3]oxazine-3-sulfonyl)-4-fluoro-1-benzofuran-2-carboxamide] | –
52.6 | 1.13e-07 | CCOc1ccc(F)cc1S(=O)(=O)NC(=O)c1cc2c(F)cc(N3CCC3)cc2o1 [Example 210, 6-(Azetidin-1-yl)-N-(2-ethoxy-5-fluoro-phenyl)sulfonyl-4-fluoro-benzofuran-2-carboxamide] | –
5210 | > 2e-05 | CN1CCc2c(cccc2S(=O)(=O)NC(=O)c2cc3c(F)cc(N4CC(F)C4)cc3o2)C1 [Example 112, 4-Fluoro-6-(3-fluoroazetidin-1-yl)-N-(2-methyl-1,2,3,4-tetrahydroisoquinoline-5-sulfonyl)-1-benzofuran-2-carboxamide] | –
45.7 | 3.1e-07 | CCc1cccc(OCc2ccccc2)c1S(=O)(=O)NC(=O)c1cc2c(F)cc(N3CCC3)cc2o1 [Example 85, 6-(Azetidin-1-yl)-N-[2-(benzyloxy)-6-ethylbenzene-1-sulfonyl]-4-fluoro-1-benzofuran-2-carboxamide] | –
18 | 1.57e-07 | CCOc1cccc(OCC(F)F)c1S(=O)(=O)NC(=O)c1cc2c(F)cc(N3CCC3)cc2o1 [Example 81, 6-(Azetidin-1-yl)-N-[2-(2,2-difluoroethoxy)-6-ethoxybenzene-1-sulfonyl]-4-fluoro-1-benzofuran-2-carboxamide] | –
